Tests used:
[1] = test system: ryegrass, Italian; test: Test A pre-/postemergence herbicide test; format: in vivo, Lolium multiflorum; conditions: for Plant response rating, Ryegrass, Italian: 0 to 100 scale
Summary of the method: (§1)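 Formulated compound (non-phytotoxic solvent, surfactant) sprayed pre- onto soil of seeded loam/sand pots or post- onto seedlings at 1–2 leaves; ~10 d greenhouse; 0–100 visual control rating versus untreated.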

[2] = test system: rice; test: Test B flooded paddy test; format: in vivo, Oryza sativa; conditions: 500 g ai/ha, Flood; scale of 0 to 100 where 0 is no effect and 100 is complete control
Summary of the method: (§2)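 Plants were grown to the 2-leaf stage, then pots were flooded to 3 cm above the soil and compound was applied directly into the paddy water, with that depth held throughout. After 13 to 15 days in a greenhouse, injury was rated visually against untreated controls on a 0 to 100 scale (100 = complete control).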

[3] = test system: blackgrass; test: Test A postemergence herbicide test; format: in vivo, Alopecurus myosuroides; conditions: for Plant response rating, Blackgrass: 125 g ai/ha, 0 to 100 scale, 0 is no effect, 100 is complete control; for Blackgrass plant response rating (0 to 100 scale, 0 is no effect, 100 is complete control): 500 g ai/ha
Summary of the method: (§3)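 Potted in loam soil/sand blend; postemergence application at 1–2 leaf stage (2–10 cm). Greenhouse ~10 d. Visual injury vs untreated, 0–100 scale; 100 = complete control.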

[4] = test system: giant foxtail; test: Test A pre-/postemergence herbicide test; format: in vivo, Setaria faberii; conditions: for Plant response rating, Foxtail, Giant: 0 to 100 scale
Summary of the method: as §1

[5] = test system: sedge, umbrella; test: Test B flooded paddy test; format: in vivo, Cyperus difformis; conditions: 500 g ai/ha, Flood; scale of 0 to 100 where 0 is no effect and 100 is complete control
Summary of the method: as §2

[6] = test system: corn; test: Test A pre-/postemergence herbicide test; format: in vivo, Zea mays; conditions: Postemergence; for Plant response rating, Corn: 125 g ai/ha, 0 to 100 scale, 0 is no effect, 100 is complete control; for Corn plant response rating (0 to 100 scale, 0 is no effect, 100 is complete control): 500 g ai/ha
Summary of the method: as §1

[7] = test system: wheat; test: Test A pre-/postemergence herbicide test; format: in vivo, Triticum aestivum; conditions: Postemergence; for Plant response rating, Wheat: 125 g ai/ha, 0 to 100 scale, 0 is no effect, 100 is complete control; for Wheat plant response rating (0 to 100 scale, 0 is no effect, 100 is complete control): 500 g ai/ha
Summary of the method: as §1

[8] = test system: kochia; test: Test A pre-/postemergence herbicide test; format: in vivo, Kochia scoparia; conditions: for Plant response rating, Kochia: 0 to 100 scale
Summary of the method: as §1

[9] = test system: ragweed; test: Test A pre-/postemergence herbicide test; format: in vivo, Ambrosia elatior; conditions: for Plant response rating, Ragweed: 0 to 100 scale
Summary of the method: as §1

[10] = test system: galium; test: Test A postemergence herbicide test; format: in vivo, Galium aparine; conditions: for Plant response rating, Galium: 125 g ai/ha, 0 to 100 scale, 0 is no effect, 100 is complete control; for Galium plant response rating (0 to 100 scale, 0 is no effect, 100 is complete control): 500 g ai/ha
Summary of the method: as §3

[11] = test system: ducksalad; test: Test B flooded paddy test; format: in vivo, Heteranthera limosa; conditions: 500 g ai/ha, Flood; scale of 0 to 100 where 0 is no effect and 100 is complete control
Summary of the method: as §2

[12] = test system: pigweed; test: Test A pre-/postemergence herbicide test; format: in vivo, Amaranthus retroflexus; conditions: for Plant response rating, Pigweed: 0 to 100 scale
Summary of the method: as §1

[13] = test system: barnyardgrass; test: Test A pre-/postemergence herbicide test; format: in vivo, Echinochloa crus-galli; conditions: for Plant response rating, Barnyardgrass: 0 to 100 scale
Summary of the method: as §1

[14] = test system: barnyardgrass; test: Test B flooded paddy test; format: in vivo, Echinochloa crus-galli; conditions: 500 g ai/ha, Flood; scale of 0 to 100 where 0 is no effect and 100 is complete control
Summary of the method: as §2

[15] = 125 g ai/ha, visual rating, 0 no effect, 100 complete control, approximately 10 days, preemergence
[16] = Postemergence, 125 g ai/ha, 0 is no effect, 100 is complete control
[17] = preemergence, 500 g ai/ha, 0 is no effect and 100 is complete control

Row | SMILES | Plant response rating, Ryegrass, Italian [1, 15] | Plant response rating, Ryegrass, Italian [1, 16] | Ryegrass, Italian plant response rating (0 to 100 scale, 0 is no effect, 100 is complete control) ([1]; Postemergence, 500 g ai/ha) | Plant response rating, Ryegrass, Italian [1, 17] | Plant response rating, Rice [2] | Plant response rating, Blackgrass [3] | Blackgrass plant response rating (0 to 100 scale, 0 is no effect, 100 is complete control) [3] | Plant response rating, Foxtail, Giant [4, 15] | Plant response rating, Foxtail, Giant [4, 16] | Foxtail, Giant plant response rating (0 to 100 scale, 0 is no effect, 100 is complete control) ([4]; Postemergence, 500 g ai/ha) | Plant response rating, Foxtail, Giant [4, 17] | Plant response rating, Sedge, Umbrella [5] | Plant response rating, Corn [6] | Corn plant response rating (0 to 100 scale, 0 is no effect, 100 is complete control) [6] | Plant response rating, Wheat [7] | Wheat plant response rating (0 to 100 scale, 0 is no effect, 100 is complete control) [7] | Plant response rating, Kochia [8, 15] | Plant response rating, Kochia [8, 16] | Kochia plant response rating (0 to 100 scale, 0 is no effect, 100 is complete control) ([8]; Postemergence, 500 g ai/ha) | Plant response rating, Kochia [8, 17] | further results
1 | O=C1NCC(c2cccc(OC(F)F)c2)C1C(=O)Nc1ccccc1C(F)(F)F (centres unmarked) [Compound 222] | 20 | 20 | 30 | 50 | 0 | 30 | 60 | 90 | 80 | 90 | 90 | 0 | 20 | 60 | 20 | 30 | 0 | 0 | 40 | 50 | Plant response rating, Ragweed [9, 15]: 0; Plant response rating, Ragweed [9, 16]: 0; Ragweed plant response rating (0 to 100 scale, 0 is no effect, 100 is complete control) ([9]; Postemergence, 500 g ai/ha): 40; Plant response rating, Ragweed [9, 17]: 20; Plant response rating, Galium [10]: 30; Galium plant response rating (0 to 100 scale, 0 is no effect, 100 is complete control) [10]: 60; Plant response rating, Ducksalad [11]: 100; Plant response rating, Pigweed [12, 15]: 0; Plant response rating, Pigweed [12, 16]: 0; Pigweed plant response rating (0 to 100 scale, 0 is no effect, 100 is complete control) ([12]; Postemergence, 500 g ai/ha): 20; Plant response rating, Pigweed [12, 17]: 30; Plant response rating, Barnyardgrass [13, 15]: 70; Plant response rating, Barnyardgrass [13, 16]: 70; Barnyardgrass plant response rating (0 to 100 scale, 0 is no effect, 100 is complete control) ([13]; Postemergence, 500 g ai/ha): 90; Plant response rating, Barnyardgrass [13, 17]: 90; Plant response rating, Barnyardgrass [14]: 60
2 | O=C1NCC(c2ccc(OC(F)F)cc2)C1C(=O)Nc1ccccc1Br (centres unmarked) [Compound 225] | 0 | 0 | 0 | 40 | 0 | 0 | 30 | 80 | 40 | 70 | 90 | 0 | 0 | 20 | 0 | 20 | 0 | 0 | 0 | 30 | Plant response rating, Ragweed [9, 15]: 0; Plant response rating, Ragweed [9, 16]: 0; Ragweed plant response rating (0 to 100 scale, 0 is no effect, 100 is complete control) ([9]; Postemergence, 500 g ai/ha): 0; Plant response rating, Ragweed [9, 17]: 0; Plant response rating, Galium [10]: 20; Galium plant response rating (0 to 100 scale, 0 is no effect, 100 is complete control) [10]: 30; Plant response rating, Ducksalad [11]: 90; Plant response rating, Pigweed [12, 15]: 0; Plant response rating, Pigweed [12, 16]: 0; Pigweed plant response rating (0 to 100 scale, 0 is no effect, 100 is complete control) ([12]; Postemergence, 500 g ai/ha): 0; Plant response rating, Pigweed [12, 17]: 0; Plant response rating, Barnyardgrass [13, 15]: 20; Plant response rating, Barnyardgrass [13, 16]: 30; Barnyardgrass plant response rating (0 to 100 scale, 0 is no effect, 100 is complete control) ([13]; Postemergence, 500 g ai/ha): 60; Plant response rating, Barnyardgrass [13, 17]: 30; Plant response rating, Barnyardgrass [14]: 0
3 | O=C1NCC(c2ccc(OC(F)F)cc2)C1C(=O)Nc1ccccc1Cl (centres unmarked) [Compound 226] | 0 | 0 | 20 | 20 | 0 | 20 | 30 | 70 | 70 | 80 | 90 | 0 | 0 | 0 | 0 | 0 | 0 | 30 | 50 | 30 | Plant response rating, Ragweed [9, 15]: 0; Plant response rating, Ragweed [9, 16]: 0; Ragweed plant response rating (0 to 100 scale, 0 is no effect, 100 is complete control) ([9]; Postemergence, 500 g ai/ha): 0; Plant response rating, Ragweed [9, 17]: 0; Plant response rating, Galium [10]: 20; Galium plant response rating (0 to 100 scale, 0 is no effect, 100 is complete control) [10]: 20; Plant response rating, Ducksalad [11]: 100; Plant response rating, Pigweed [12, 15]: 0; Plant response rating, Pigweed [12, 16]: 0; Pigweed plant response rating (0 to 100 scale, 0 is no effect, 100 is complete control) ([12]; Postemergence, 500 g ai/ha): 0; Plant response rating, Pigweed [12, 17]: 30; Plant response rating, Barnyardgrass [13, 15]: 50; Plant response rating, Barnyardgrass [13, 16]: 30; Barnyardgrass plant response rating (0 to 100 scale, 0 is no effect, 100 is complete control) ([13]; Postemergence, 500 g ai/ha): 80; Plant response rating, Barnyardgrass [13, 17]: 90; Plant response rating, Barnyardgrass [14]: 0
4 | O=C1NCC(c2cccc(OC(F)F)c2)C1C(=O)Nc1ccccc1Cl (centres unmarked) [Compound 229] | 10 | 30 | 40 | 20 | 0 | 40 | 70 | 90 | 80 | 90 | 90 | 0 | 0 | 0 | 0 | 0 | 0 | 10 | 60 | 70 | Plant response rating, Ragweed [9, 15]: 0; Plant response rating, Ragweed [9, 16]: 20; Ragweed plant response rating (0 to 100 scale, 0 is no effect, 100 is complete control) ([9]; Postemergence, 500 g ai/ha): 60; Plant response rating, Galium [10]: 60; Galium plant response rating (0 to 100 scale, 0 is no effect, 100 is complete control) [10]: 70; Plant response rating, Ducksalad [11]: 100; Plant response rating, Pigweed [12, 15]: 0; Plant response rating, Pigweed [12, 16]: 0; Pigweed plant response rating (0 to 100 scale, 0 is no effect, 100 is complete control) ([12]; Postemergence, 500 g ai/ha): 0; Plant response rating, Pigweed [12, 17]: 0; Plant response rating, Barnyardgrass [13, 15]: 70; Plant response rating, Barnyardgrass [13, 16]: 70; Barnyardgrass plant response rating (0 to 100 scale, 0 is no effect, 100 is complete control) ([13]; Postemergence, 500 g ai/ha): 80; Plant response rating, Barnyardgrass [13, 17]: 90; Plant response rating, Barnyardgrass [14]: 50
5 | Cc1ccccc1NC(=O)C1C(=O)NCC1c1cccc(OC(F)F)c1 (centres unmarked) [Compound 230] | 0 | 0 | 20 | 30 | 0 | 20 | 50 | 90 | 70 | 90 | 90 | 0 | 20 | 40 | 20 | 20 | 0 | 0 | 40 | 30 | Plant response rating, Ragweed [9, 15]: 0; Plant response rating, Ragweed [9, 16]: 0; Ragweed plant response rating (0 to 100 scale, 0 is no effect, 100 is complete control) ([9]; Postemergence, 500 g ai/ha): 30; Plant response rating, Ragweed [9, 17]: 20; Plant response rating, Galium [10]: 20; Galium plant response rating (0 to 100 scale, 0 is no effect, 100 is complete control) [10]: 50; Plant response rating, Ducksalad [11]: 75; Plant response rating, Pigweed [12, 15]: 0; Plant response rating, Pigweed [12, 16]: 0; Pigweed plant response rating (0 to 100 scale, 0 is no effect, 100 is complete control) ([12]; Postemergence, 500 g ai/ha): 0; Plant response rating, Pigweed [12, 17]: 20; Plant response rating, Barnyardgrass [13, 15]: 30; Plant response rating, Barnyardgrass [13, 16]: 60; Barnyardgrass plant response rating (0 to 100 scale, 0 is no effect, 100 is complete control) ([13]; Postemergence, 500 g ai/ha): 90; Plant response rating, Barnyardgrass [13, 17]: 90; Plant response rating, Barnyardgrass [14]: 60

Reference: patent US10294202B2, “Pyrrolidinones as herbicides” (FMC Corporation, priority 2013, dated 2019)
